Experimental data: patent publication US10281476B2, “Methods to identify modulators of RyR calcium channels” (REGENTS OF THE UNIVERSITY OF MINNESOTA, priority 2013, dated 2019)
Where no end group is shown, it is not given here.

How the values were obtained:
RyR2 [1] = molecular target: RyR2 (Rattus norvegicus, UniProt B0LPN4); assay: F-DPc10 wash-in and washout kinetics at the myocyte Z-line; type: binding; parameters: endogenous in cells; host or cells: saponin-permeabilized adult rat ventricular myocytes; conditions: for effect on HF647-DPc10 wash-out kinetics: dantrolene 1 μmol/L, NF-DPc10 5 μmol/L
Method: To characterize DPc10-binding kinetics at Z-lines, we performed F-DPc10 wash-in (500 nmol/L) and washout experiments in permeabilized myocytes (FIG. 10A). Association (τwash-in=79.0±3.2 minutes) and dissociation (τwashout=149.8±4.4 minutes) were very slow compared with similar FKBP12.6 measurements (Guo et al., Circ Res, 2010; 106:1743-1752). From the wash-in/washout measurements, we calculated the association and dissociation rates constants, kon and koff, respectively, according to the following equation: kwash-in=[F-DPc10]kon+koff where kwashout≈koff and k=1/τ (s^−1). Accordingly, kon=202±20 (L mol^−1 s^−1) and koff=0.11±0.01 (10^−3 s^−1). […] We repeated this kinetic analysis using FRET between FKBP12.6 and DPc10, thus assessing the RyR2-specific DPc10 binding (FIG. 11A AND 11B). […] Based on these kinetic and affinity analyses, we infer that most of the Z-line-specific DPc10 binding is to RyR2. This is also consistent with Bmax, which would imply ≈1 DPc10 per RyR2 monomer.
We were intrigued by the slow kwash-in and conducted measurements to further understand the basis of this slow association. We tested the hypothesis that at resting [Ca^2+]i, DPc10 access to its RyR2 binding site is sterically hindered. If the N-terminal and central domains are tightly zipped to each other, then this interaction may occlude the DPc10-binding site on the RyR2, thus limiting the kon for DPc10. Alternatively, a limiting factor may be the rate at which DPc10 adopts a conformation that can bind to RyR2. To discern between these mechanisms, we determined the effect of [F-DPc10] on τwash-in. If the small fraction of DPc10 in the right conformation limits binding rate, then τwash-in should be faster at higher [F-DPc10], according to Equation. […] Instead, a 10-fold increase in [F-DPc10] had no significant effect on the τwash-in, although it did increase Bmax (FIG. 10B). The same was seen when using FKBP12.6-DPc10 FRET to assess τwash-in with 0.5 vs 5 μmol/L HF647-DPc10 (FIG. 12A AND 12B).
In our working model, under resting conditions, the RyR2 closed state may be stabilized by the interaction between the N-terminal and central domain in the zipped state. We hypothesized that conditions that promote RyR2 opening might enhance the rate of unzipping and accelerate τwash-in for F-DPc10. To test this, we first monitored F-DPc10 wash-in at elevated Ca^2+ (500 nmol/L). However, the 13% faster mean τwash-in was not significant (FIG. 13A). […] Thus, we preincubated myocytes with ryanodine (100 μmol/L) plus caffeine ([…]), which are known to favor long RyR2 openings and were reported to cause RyR2 domain unzipping in HEK293 cells (Liu et al., J Cell Sci, 2010; 123: 1775-1784). Ryanodine+caffeine produced a 21% faster τwash-in (P=0.002; FIG. 13B). However, the most significant effect was seen after presaturating RyR2 with NF-DPc10 (and then NF-DPc10 washout with F-DPc10 present; FIG. 13A). […] Assuming that koff of NF-DPc10 is the same as for F-DPc10 and using Equation, the kon is increased by 3.2-fold by unzipping as a result of prebinding of NF-DPc10 to the RyR2. Our working hypothesis is that the RyR2 open state may increase the probability of an RyR2 shifting to the unzipped state and may allow faster F-DPc10 wash-in. It also seems that the RyR2 open state (favored by caffeine-ryanodine) differs from the unzipped state (bound with DPc10).
Both FKBP12.6 and CaM bind to the RyR2 and can reduce channel opening, which might alter DPc10 binding. […] Neither CaM nor FKBP12.6 pretreatment altered M-line F-DPc10 fluorescence (FIG. 15). […] We infer that CaM stabilizes the domain interaction between N-terminal and central domains in the zipped state and thereby may reduce DPc10 access to its binding site. To test for direct CaM-DPc10 interaction, we performed control FRET measurements between donor-labeled CaM and acceptor-labeled DPc10 in solution in the absence of RyR. The maximal FRET efficiency (<1%) ruled out direct CaM-DPc10 interaction. […]

RyR2 [2] = assay: RyR2 free thiol content by monobromobimane (mBB) fluorescence; type: cell-based, rat; conditions: 50 μmol/L H2O2, with or without dantrolene pretreatment
Method: Intracellular reactive oxygen species (ROS) formation was measured in rat cardiac myocytes using a fluorescent probe, 5-(and -6)-chloromethyl-2′,7′-dichlorodihydrofluoroscein diacetate (H2DCFDA, 10 μmol/L) (Terentyev et al., Circ Res. 2008; 103:1466-1472). This assay is widely used as a reliable method for the measurement of intracellular ROS such as hydrogen peroxide, hydroxyl radicals, and hydroperoxide. The H2DCFDA dye was excited with the 488 nm and emission was collected at 500-530 nm. The content of free thiols in RyR2 was determined based on the monobromobimane (mBB, Calbiochem) fluorescence intensity, as previously described (Terentyev et al., Circ Res. 2008; 103:1466-1472; Ho et al., J Physiol. 2011; 19:4697-4708). In brief, myocytes were incubated with mBB for 1 hr. Myocytes were then lysed in lysis buffer and loaded on 6% SDS-PAGE gels. The fluorescence emission intensity of the RyR2-bound mBB was measured at 482 nm by exciting at 382 nm. mBB fluorescence was normalized to the RyR2 amount, which was determined using quantitative densitometry of Coomassie Blue-stained gels.
To monitor intracellular ROS level, we used H2DCFDA (10 μmol/L). […] To assess whether dantrolene can attenuate the extent of RyR2 thiol modification in H2O2-treated myocytes, we used a monobromobimane (mBB) fluorescence labeling assay.

Sequence of RyR2 (Rattus norvegicus, UniProt B0LPN4) (B0LPN4 whole entry): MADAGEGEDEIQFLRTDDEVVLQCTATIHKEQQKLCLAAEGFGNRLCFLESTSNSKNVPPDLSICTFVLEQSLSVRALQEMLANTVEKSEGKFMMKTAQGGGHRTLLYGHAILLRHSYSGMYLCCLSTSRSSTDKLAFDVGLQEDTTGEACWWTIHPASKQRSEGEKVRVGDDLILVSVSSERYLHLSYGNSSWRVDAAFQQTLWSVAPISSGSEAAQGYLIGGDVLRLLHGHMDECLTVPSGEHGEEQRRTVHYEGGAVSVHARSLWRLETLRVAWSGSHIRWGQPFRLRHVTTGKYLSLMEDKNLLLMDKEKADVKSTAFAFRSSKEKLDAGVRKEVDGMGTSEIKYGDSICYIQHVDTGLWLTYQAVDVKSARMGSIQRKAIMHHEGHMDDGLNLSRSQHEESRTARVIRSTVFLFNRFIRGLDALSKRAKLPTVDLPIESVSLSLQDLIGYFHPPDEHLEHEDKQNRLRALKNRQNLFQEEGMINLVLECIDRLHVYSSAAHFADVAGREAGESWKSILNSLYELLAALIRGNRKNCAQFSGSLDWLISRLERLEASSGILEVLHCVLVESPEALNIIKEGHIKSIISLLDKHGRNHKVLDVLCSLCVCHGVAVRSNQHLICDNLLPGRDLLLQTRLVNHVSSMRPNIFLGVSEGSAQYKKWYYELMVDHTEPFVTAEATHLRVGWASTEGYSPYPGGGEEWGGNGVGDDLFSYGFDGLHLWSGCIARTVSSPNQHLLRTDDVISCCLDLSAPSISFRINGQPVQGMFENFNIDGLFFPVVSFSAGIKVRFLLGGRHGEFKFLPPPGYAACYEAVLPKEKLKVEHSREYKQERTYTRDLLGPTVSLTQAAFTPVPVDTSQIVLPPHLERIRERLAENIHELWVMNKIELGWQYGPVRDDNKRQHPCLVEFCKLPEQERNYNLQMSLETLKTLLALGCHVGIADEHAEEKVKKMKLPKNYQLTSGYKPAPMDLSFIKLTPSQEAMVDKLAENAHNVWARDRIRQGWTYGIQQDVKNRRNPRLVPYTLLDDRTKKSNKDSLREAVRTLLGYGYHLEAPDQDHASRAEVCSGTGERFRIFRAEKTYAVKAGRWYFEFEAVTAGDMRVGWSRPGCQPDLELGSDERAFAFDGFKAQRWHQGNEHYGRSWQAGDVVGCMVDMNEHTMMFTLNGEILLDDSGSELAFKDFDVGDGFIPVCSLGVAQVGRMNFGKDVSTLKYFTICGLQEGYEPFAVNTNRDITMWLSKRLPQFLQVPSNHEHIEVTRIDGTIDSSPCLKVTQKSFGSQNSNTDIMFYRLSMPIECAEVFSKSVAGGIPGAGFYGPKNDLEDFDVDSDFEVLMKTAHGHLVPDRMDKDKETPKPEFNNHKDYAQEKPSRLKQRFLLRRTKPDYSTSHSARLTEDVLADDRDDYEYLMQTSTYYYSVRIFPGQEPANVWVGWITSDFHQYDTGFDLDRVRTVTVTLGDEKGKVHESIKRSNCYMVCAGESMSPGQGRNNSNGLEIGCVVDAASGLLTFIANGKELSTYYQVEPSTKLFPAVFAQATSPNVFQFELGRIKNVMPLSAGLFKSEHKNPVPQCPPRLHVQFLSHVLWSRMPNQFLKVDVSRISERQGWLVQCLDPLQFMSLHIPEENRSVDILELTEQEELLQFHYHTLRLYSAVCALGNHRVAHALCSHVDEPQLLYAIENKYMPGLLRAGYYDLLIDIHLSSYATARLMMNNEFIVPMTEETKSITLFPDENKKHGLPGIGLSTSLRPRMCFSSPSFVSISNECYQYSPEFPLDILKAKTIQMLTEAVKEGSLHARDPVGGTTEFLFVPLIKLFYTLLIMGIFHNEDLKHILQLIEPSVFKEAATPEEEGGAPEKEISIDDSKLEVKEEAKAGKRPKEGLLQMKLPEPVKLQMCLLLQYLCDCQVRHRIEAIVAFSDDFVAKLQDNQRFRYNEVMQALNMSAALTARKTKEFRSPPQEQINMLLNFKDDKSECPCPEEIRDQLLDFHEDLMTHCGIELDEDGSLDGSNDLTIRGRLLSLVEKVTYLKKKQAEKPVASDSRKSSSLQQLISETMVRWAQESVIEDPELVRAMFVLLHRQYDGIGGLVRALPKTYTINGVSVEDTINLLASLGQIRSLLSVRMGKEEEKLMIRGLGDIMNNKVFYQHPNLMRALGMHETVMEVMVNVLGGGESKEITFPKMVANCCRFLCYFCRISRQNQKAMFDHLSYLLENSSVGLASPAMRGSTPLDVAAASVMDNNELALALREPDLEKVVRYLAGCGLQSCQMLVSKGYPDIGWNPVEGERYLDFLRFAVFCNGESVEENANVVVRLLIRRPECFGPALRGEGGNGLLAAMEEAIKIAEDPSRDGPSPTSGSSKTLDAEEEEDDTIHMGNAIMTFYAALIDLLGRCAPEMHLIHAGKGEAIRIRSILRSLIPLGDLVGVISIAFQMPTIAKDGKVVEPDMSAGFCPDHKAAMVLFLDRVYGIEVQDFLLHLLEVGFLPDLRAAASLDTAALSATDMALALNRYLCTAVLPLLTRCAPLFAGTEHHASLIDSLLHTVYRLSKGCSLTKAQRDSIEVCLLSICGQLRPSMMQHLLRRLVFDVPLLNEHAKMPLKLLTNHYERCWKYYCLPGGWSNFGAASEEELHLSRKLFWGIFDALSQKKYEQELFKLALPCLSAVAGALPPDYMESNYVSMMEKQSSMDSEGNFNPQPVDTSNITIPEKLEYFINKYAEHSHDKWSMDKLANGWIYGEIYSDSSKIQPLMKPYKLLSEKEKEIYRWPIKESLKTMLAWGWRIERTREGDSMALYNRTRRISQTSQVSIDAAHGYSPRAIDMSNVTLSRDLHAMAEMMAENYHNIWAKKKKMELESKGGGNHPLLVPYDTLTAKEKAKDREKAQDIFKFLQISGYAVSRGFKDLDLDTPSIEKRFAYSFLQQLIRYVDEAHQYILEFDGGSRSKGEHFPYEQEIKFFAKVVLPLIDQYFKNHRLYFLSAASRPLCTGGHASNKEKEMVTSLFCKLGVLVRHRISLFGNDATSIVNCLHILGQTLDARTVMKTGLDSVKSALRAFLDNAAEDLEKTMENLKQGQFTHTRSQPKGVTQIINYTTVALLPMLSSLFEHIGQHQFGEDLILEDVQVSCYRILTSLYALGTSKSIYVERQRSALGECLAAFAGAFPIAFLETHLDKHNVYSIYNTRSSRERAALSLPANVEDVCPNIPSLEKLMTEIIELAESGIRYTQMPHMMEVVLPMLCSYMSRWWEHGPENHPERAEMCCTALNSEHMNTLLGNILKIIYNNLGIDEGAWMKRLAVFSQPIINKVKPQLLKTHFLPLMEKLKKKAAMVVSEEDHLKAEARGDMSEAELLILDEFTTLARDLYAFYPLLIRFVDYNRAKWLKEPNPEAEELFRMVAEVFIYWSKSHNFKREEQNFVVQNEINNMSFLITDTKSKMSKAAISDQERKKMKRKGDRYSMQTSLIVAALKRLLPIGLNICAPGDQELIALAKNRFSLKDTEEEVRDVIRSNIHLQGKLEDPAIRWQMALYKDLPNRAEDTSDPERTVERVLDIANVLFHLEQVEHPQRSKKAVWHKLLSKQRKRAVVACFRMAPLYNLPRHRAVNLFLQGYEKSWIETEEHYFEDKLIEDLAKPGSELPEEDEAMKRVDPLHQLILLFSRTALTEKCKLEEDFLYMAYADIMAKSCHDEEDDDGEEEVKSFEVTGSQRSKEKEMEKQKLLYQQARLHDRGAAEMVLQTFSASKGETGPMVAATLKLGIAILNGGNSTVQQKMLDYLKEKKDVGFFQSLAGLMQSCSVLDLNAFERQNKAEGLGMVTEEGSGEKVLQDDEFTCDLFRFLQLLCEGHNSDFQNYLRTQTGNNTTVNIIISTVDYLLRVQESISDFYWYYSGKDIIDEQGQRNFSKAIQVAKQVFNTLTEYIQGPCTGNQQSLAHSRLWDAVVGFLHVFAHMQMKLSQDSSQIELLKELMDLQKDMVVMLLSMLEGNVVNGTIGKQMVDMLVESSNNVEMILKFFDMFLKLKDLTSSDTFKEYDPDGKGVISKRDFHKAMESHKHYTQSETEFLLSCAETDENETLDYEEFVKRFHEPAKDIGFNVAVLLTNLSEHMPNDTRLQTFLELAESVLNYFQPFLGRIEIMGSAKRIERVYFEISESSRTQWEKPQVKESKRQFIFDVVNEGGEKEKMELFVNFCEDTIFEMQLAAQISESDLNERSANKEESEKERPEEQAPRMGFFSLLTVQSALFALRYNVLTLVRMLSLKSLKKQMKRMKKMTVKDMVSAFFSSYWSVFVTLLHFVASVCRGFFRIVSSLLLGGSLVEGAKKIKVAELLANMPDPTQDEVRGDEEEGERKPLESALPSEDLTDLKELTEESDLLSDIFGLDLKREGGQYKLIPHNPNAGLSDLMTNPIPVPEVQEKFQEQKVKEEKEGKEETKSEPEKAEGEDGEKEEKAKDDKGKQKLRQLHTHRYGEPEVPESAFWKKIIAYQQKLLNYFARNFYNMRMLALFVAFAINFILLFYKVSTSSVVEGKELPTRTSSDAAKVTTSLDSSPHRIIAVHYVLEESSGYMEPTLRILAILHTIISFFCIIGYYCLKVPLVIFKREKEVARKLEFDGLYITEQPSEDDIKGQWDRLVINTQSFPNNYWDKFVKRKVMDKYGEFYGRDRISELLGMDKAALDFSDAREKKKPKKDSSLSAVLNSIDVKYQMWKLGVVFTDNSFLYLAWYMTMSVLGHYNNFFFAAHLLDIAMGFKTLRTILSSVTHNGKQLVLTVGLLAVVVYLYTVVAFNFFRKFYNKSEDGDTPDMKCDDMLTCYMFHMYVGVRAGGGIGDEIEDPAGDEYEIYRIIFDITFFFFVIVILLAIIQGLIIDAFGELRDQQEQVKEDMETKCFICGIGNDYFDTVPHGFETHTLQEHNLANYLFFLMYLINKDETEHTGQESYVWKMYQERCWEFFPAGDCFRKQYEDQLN

| Molecule | acceleration of F-DPc10 association, by a factor of (RyR2 [1]; after presaturating RyR2 with NF-DPc10, then washout with F-DPc10 present) | effect on HF647-DPc10 wash-out kinetics (RyR2 [1]) | increase of kon of F-DPc10 (RyR2 [1]; prebinding of NF-DPc10 to RyR2) [fold] | increase in kon of F-DPc10 (RyR2 [1]; pretreatment with NF-DPc10) | reduction of maximal HF647-DPc10 binding (Bmax) (RyR2 [1]; 1 μmol/L dantrolene) [%] | content of free thiols on RyR2 / RyR2 oxidation level (RyR2 [2]) |
| --- | --- | --- | --- | --- | --- | --- |
| GFCPDHKAAMVLFLDRVYGIEVQDFLLHLLEVGFLP [DPc10] | ≈ 2 | accelerate | 3.2 | ≈ 320% | – | – |
| O=C1CN(/N=C/c2ccc(-c3ccc([N+](=O)[O-])cc3)o2)C(O)=N1 [dantrolene] | – | had no effect | – | – | 74 | did not attenuate |
| OO [H2O2, hydrogen peroxide] | – | – | – | – | – | significantly decreased |
